According to patent US12290533B2, “Extracellular vesicles and methods of using” (NUtech Ventures, priority 2018, dated 2025):
“Also recorded” adds a separate entry of the source.

Tests used:
[1] = Bovine milk exosomes and miRNAs in embryos and placentas of pregnant mice at E16.5; type: in vivo
Excerpt: The bioavailability of bovine milk exosomes and miRNAs in fetal circulation of pregnant mice was examined. DiR-labelled bovine milk exosomes (or unlabeled control bovine milk exosomes) were adminstered to pregnant mice at embryonic day 16.5 (E16.5) to embryos and placentas. […] Three independent experiments per each treatment and control.

[2] = system: human umbilical vein endothelial cells (HUVEC); assay: Uptake of fluorophore-labeled cow's milk exosomes into HUVECs; type: cell-based
[3] = Bioavailability and distribution of fluorophore-labeled RNA and microRNA cargos in bovine milk exosomes; type: in vivo, Balb/c mice; conditions: for tissue distribution of fluorophore-labeled microRNA transfected into milk exosomes: oral gavage, 6 hours
Method: Exosomes were isolated from bovine milk using ultracentrifugation.
Labeling of exosomes and RNAs with synthetic fluorophores. […] All exosome preparations were utilized within 2 hours.

[4] = system: human colon carcinoma Caco-2 cells; assay: Uptake of FM 4-64-labeled bovine milk exosomes into Caco-2 cells; conditions: for effect on exosome transport: milk exosomes treated with protease
Method: Exosomes were isolated from bovine milk by differential centrifugation and authenticated as recommended by International Society for Extracellular Vesicles. […] Controls were incubated with solvent. Exosomes were labeled with FM4-64, and unlabeled fluorophore was removed. […] Transport kinetics were modelled using the Michaelis-Menten equation. One-way ANOVA and Bonferroni's multiple comparison were used for statistical analyses.
Caco-2 cells and IEC-6 cells were seeded at a density of 20,000 and 7000 cells/well, respectively, in 96-well plates, and allowed to adhere for 48 h, when cells were 75% confluent. The exosomes were labeled with the fluorophore, FM 4-64 (Molecular Probes). One microliter of a stock solution of FM 4-64 (5.9 mmol/L) was added to 1 mL of exosome suspension and incubated for 15 min at 37° C., and excess FM 4-64 was removed by ultracentrifugation at 120,000 3 g at 4° C. for 90 min. Transport studies were conducted using FM4-64-labeled exosomes using 3-110 mg of exosomal protein/well (Caco-2 cells) or 27-652 mg of exosomal protein/well (IEC-6 cells) and incubating cells for various periods of time to assess saturation kinetics; blanks were created using solvent. Assays were calibrated by quantifying the fluorescence of a known mass of exosomes labeled with FM 4-64. Exosome uptake was analyzed by measuring the cell fluorescence at 515 (excitation) and 640 nm (emission) using a Biotek FLx800 plate reader (BioTek Instru-ments). Fluorescence readings were corrected for cell autofluorescence by subtracting signals measured in cells incubated with exosome-depleted media. Transport kinetics was modeled using the Michaelis-Menten equation and nonlinear regression; modeling was conducted using GraphPad Prism 6.0 (GraphPad Software). […] Subsequent transport studies were conducted using incubation times of 8 hours for Caco-2 cells (FIG. 34B).
Transport kinetics was modeled using the Michaelis-Menten equation.

[5] = mouse, in vivo
Method: Exosomes were isolated from bovine milk using ultracentrifugation. Exosome membranes were labeled using the fluorophore, DiR, as described elsewhere herein. […] Identity, integrity, fine dispersion, and count of exosomes were assessed using transmission electron microscopy, western blots, and nanoparticle tracker (not shown). Exosomes were administered orally by gavage (1×10^12 exosomes/g) in BALB/c mice. Absorption and distribution of exosomes and their cargos was monitored at timed intervals for up to 24 h using an iBox® Small Animal Imaging system and LiCor Odyssey CLx. At timed intervals, mice were euthanized and various tissues were excised and collected for densitometry analysis using VisionWorks®LS and Image Studio software.
Studies were conducted in female Balb/c mice (Jackson Laboratory, stock number 000651), ages 8 to 20 weeks, unless noted otherwise.
Exosomes were labeled with the lipophilic fluorophore 1,1-dioctadecyl-3,3,3,3-tetrametylindotricarbocyanine iodide (DiR) as described elsewhere (see, e.g., Wiklander et al., J. Extracell. Vesicles 4:26316 (2015)). […] Free dyes and extra-exosomal synthetic microRNAs were removed by two PBS washes (120,000×g for 60 minutes), and 1×10^12 exosomes were administered per g body weight in a volume of less than 150 μl. […] All exosome preparations were utilized within 2 hours.

[6] = system: rat small intestinal IEC-6 cells; assay: Uptake of FM 4-64-labeled bovine milk exosomes into IEC-6 cells; type: cell-based; conditions: exosomes treated with 0.105 mMol/L trypsin for 30 mins

miR-30d: microRNA loaded into bovine milk exosomes; uguaaacauccccgacuggaagcu, SEQ ID NO: 13 (UGUAAACAUCCCCGACUGGAAGCU; listed as RNA, further chemistry not given here)
presence in embryo and placenta [1]: present in both embryo and placenta

C=C1[C@@H](C)[C@H]2[C@H](Cc3ccccc3)NC(=O)[C@]23[C@H](OC(C)=O)/C=C/[C@@](C)(O)C(=O)[C@@H](C)C/C=C/[C@H]3[C@@H]1O [cytochalasin D]
decrease of transport rates compared with controls ([2]; exosomes treated with proteinase K, or transport in presence of D-galactose, excess unlabeled exosomes or cytochalasin D): 50%

MiR-34a: synthetic IRDye-labeled microRNA transfected into bovine milk exosomes; uggcagugucuuagcugguugu, SEQ ID NO: 8 (UGGCAGUGUCUUAGCUGGUUGU; IRDye fluorophore label, position not given here, synthetic)
tissue distribution of fluorophore-labeled microRNA transfected into milk exosomes [3]: brain

O=C[C@H](O)[C@@H](O)[C@@H](O)[C@H](O)CO [D-galactose]
effect of carbohydrate competitor on exosome uptake ([2]; 150 mmol/L, pretreated 30 min): caused a significant decrease in exosome uptake

miR-375: synthetic 5ATT0633N-labeled microRNA, with or without quencher 3IAbRQSp, transfected into milk exosomes; uuuuguucguucggcucgcguga, SEQ ID NO: 11 (UUUUGUUCGUUCGGCUCGCGUGA; listed as RNA, further chemistry not given here)
signal of microRNA conjugated to fluorophore and quencher ([3]; administered orally, signal indicates degradation): only a minimal signal was detected in heart and spleen | tissue distribution of fluorophore-labeled microRNA transfected into milk exosomes [3]: the signal localized primarily to the intestines, with minor signal being detectable in kidneys, brain and liver; also recorded: accumulated in brain, liver, kidneys and intestinal mucosa in mice

Glu-C: serine protease cleaving at glutamic acid and aspartic acid residues
effect on exosome transport [4]: significant decrease in exosome transport into CaCo-2 cells

trypsin
tissue accumulation of exosomes depleted of surface proteins [5]: reduced accumulation of exosomes in the liver and lungs after intravenous injection | transport rates (Vmax) ([4]; exosomes treated with protease, control 88±1, cell type not named at the place): 40±0.6 arbitrary units | effect on exosome transport [4]: significant decrease in exosome transport into CaCo-2 cells | exosome uptake [6]: 82%+8%

miR-320a: synthetic IRDye-labeled microRNA transfected into bovine milk exosomes; aaaagcuggguugagagggcga, SEQ ID NO: 10 (AAAAGCUGGGUUGAGAGGGCGA; IRDye fluorophore label, position not given here, synthetic)
tissue distribution of IRDye-labeled microRNA transfected into milk exosomes ([3]; 3 hours after intravenous injection): accumulated primarily in liver with small amounts being detectable in kidneys, lungs and spleen 3 hours after intravenous injection | apparent bioavailability ([3]; hepatic densitometry 3 hours after intravenous injection vs 6 hours after oral gavage): 25.4±8.7% | tissue distribution of fluorophore-labeled microRNA transfected into milk exosomes [3]: accumulated primarily in liver, spleen and kidneys 6 hours after oral gavage
